Measured values as given in patent publication US12364696B2, “Treatment of autoimmune disease” (priority 2019, dated 2025).
Where two headings read alike, the source gives them in different places.

What was measured:
[1] = oral tofacitinib; cited from earlier work
[2] = system: patients with alopecia areata; details: oral tofacitinib 5 mg twice daily for 6 months; cited from earlier work
[3] = system: male patients with alopecia areata of the beard (BAA)
[4] = system: patients with alopecia areata; details: oral tofacitinib 5 mg twice daily for 3 months; cited from earlier work
[5] = system: patients with lichen planopilaris and frontal fibrosing alopecia; details: for Patient-reported response: ceased treatment
[6] = Pharmacokinetics of sublingual tofacitinib, plasma LC MS/MS; format: in vivo, human; details: for concentration at 24 h: other: sublingual
Description: Blood samples were left to coagulate at room temperature for 20 minutes before centrifuging at 3500 rotations per minute for 15 minutes. The resulting separated plasma was extracted and stored at −20 degrees Celsius prior to processing using the liquid chromatography tandem mass spectrometry (LC MS/MS) method.
The mobile phase consisted of (A) 5 mM ammonium acetate pH 4 and (B) methanol. The gradient profile developed was: 0-2.0 min, 90% A, 10% B; 2.0-3.0 min, 30% A, 70% B; 3.0-4.0 min, 90% A, 10% B. A Shimadzu LC MS/MS-8050 triple quadrupole mass spectrometer (Shimadzu, Kyoto, Japan) was used to perform the mass spectrometry. MS/MS analysis was performed in positive ion mode using electrospray ionization conditions.

[7] = system: patients with moderate to severe, treatment-resistant alopecia areata; details: for Mean change from baseline in Assessment of Quality of Life-8D (AQoL-8D) score at Week 28: n = 13; for Mean change from baseline in Alopecia Areata Symptom Impact Scale (AASIS) score at Week 28 - Global Symptom Impact Score / Mean change from baseline in Alopecia Areata Symptom Impact Scale (AASIS) score at Week 28 - Scalp Hair Loss Score: n = 14
[8] = BAA subtype multiple patches, % of n = 45
[9] = BAA subtype solitary patch, % of n = 45
[10] = BAA subtype total beard loss, % of n = 45
[11] = all patients, n = 45 (21 oral, 24 sublingual)
[12] = degree of scalp hair regrowth Complete
[13] = degree of scalp hair regrowth Complete, % of n = 45
[14] = degree of scalp hair regrowth None
[15] = degree of scalp hair regrowth None, % of n = 45
[16] = degree of scalp hair regrowth Partial
[17] = degree of scalp hair regrowth Partial, % of n = 45
[18] = sublingual, 5 mg tablets, 3 months
[19] = sublingual, 5 mg tablets, 3 months, n = 16
[20] = sublingual, listed as sublingual tofacitinib

SMILES: C[C@@H]1CCN(C(=O)CC#N)C[C@@H]1N(C)c1ncnc2[nH]ccc12 [tofacitinib]
- Reported elimination half-life [1]: 3 h
- Response rate [2]: 64.9%
- Duration of treatment after which complete beard regrowth was achieved (mean) ([3]; 10 complete beard responders): 16.0 months
- Duration of treatment after which complete beard regrowth was achieved (range) ([3]; 10 complete beard responders): 5.0-28.0 months
- Men with complete beard regrowth who also achieved complete scalp hair regrowth ([3]; 10 complete beard responders): 60%
- Degree of beard regrowth Complete, number of patients ([3]; BAA subtype multiple patches): 7
- Degree of beard regrowth None, number of patients ([3]; BAA subtype multiple patches): 8
- Degree of beard regrowth Partial, number of patients ([3]; BAA subtype multiple patches): 9
- Degree of beard regrowth Complete, % of patients [3, 8]: 15.6%
- Degree of beard regrowth None, % of patients [3, 8]: 17.8%
- Degree of beard regrowth Partial, % of patients [3, 8]: 20.0%
- Degree of beard regrowth Complete, number of patients ([3]; BAA subtype solitary patch): 0
- Degree of beard regrowth None, number of patients ([3]; BAA subtype solitary patch): 2
- Degree of beard regrowth Partial, number of patients ([3]; BAA subtype solitary patch): 0
- Degree of beard regrowth Complete, % of patients [3, 9]: 0.0%
- Degree of beard regrowth None, % of patients [3, 9]: 4.5%
- Degree of beard regrowth Partial, % of patients [3, 9]: 0.0%
- Degree of beard regrowth Complete, number of patients ([3]; BAA subtype total beard loss): 3
- Degree of beard regrowth None, number of patients ([3]; BAA subtype total beard loss): 6
- Degree of beard regrowth Partial, number of patients ([3]; BAA subtype total beard loss): 10
- Degree of beard regrowth Complete, % of patients [3, 10]: 6.7%
- Degree of beard regrowth None, % of patients [3, 10]: 13.3%
- Degree of beard regrowth Partial, % of patients [3, 10]: 22.2%
- Degree of beard regrowth Complete, % of patients [3, 11]: 22.2%
- Degree of beard regrowth Complete, number of patients [3, 11]: Ten
- Degree of beard regrowth None, % of patients [3, 11]: 35.6%
- Degree of beard regrowth None, number of patients [3, 11]: 16
- Degree of beard regrowth Partial, % of patients [3, 11]: 42.2%
- Degree of beard regrowth Partial, number of patients [3, 11]: 19
- Degree of beard regrowth Complete, number of patients ([3]; all patients, n = 45 (21 oral, 24 sublingual), listed as oral tofacitinib): 10
- Degree of beard regrowth Complete, number of patients [3, 12]: 6
- Degree of beard regrowth None, number of patients [3, 12]: 0
- Degree of beard regrowth Partial, number of patients [3, 12]: 1
- Degree of beard regrowth Complete, % of patients [3, 13]: 13.3%
- Degree of beard regrowth None, % of patients [3, 13]: 0.0%
- Degree of beard regrowth Partial, % of patients [3, 13]: 2.2%
- Degree of beard regrowth Complete, number of patients [3, 14]: 1
- Degree of beard regrowth None, number of patients [3, 14]: 14
- Degree of beard regrowth Partial, number of patients [3, 14]: 3
- Degree of beard regrowth Complete, % of patients [3, 15]: 2.2%
- Degree of beard regrowth None, % of patients [3, 15]: 31.1%
- Degree of beard regrowth Partial, % of patients [3, 15]: 6.7%
- Degree of beard regrowth Complete, number of patients [3, 16]: 3
- Degree of beard regrowth None, number of patients [3, 16]: 2
- Degree of beard regrowth Partial, number of patients [3, 16]: 15
- Degree of beard regrowth Complete, % of patients [3, 17]: 6.7%
- Degree of beard regrowth None, % of patients [3, 17]: 4.5%
- Degree of beard regrowth Partial, % of patients [3, 17]: 33.3%
- Patients with mild adverse events (upper respiratory infections, elevated liver transaminases, fatigue, acne) ([3]; n = 45, oral or sublingual): 10
- Serious adverse events ([3]; n = 45, oral or sublingual): no serious adverse events
- SALT score post-tofacitinib, Mean ± SD ([3]; n = 45, oral or sublingual, pre-tofacitinib 62.0 ± 38.9): 41.7 ± 38.5
- SALT score post-tofacitinib, Median (Range) ([3]; n = 45, oral or sublingual, pre-tofacitinib 69.0 (2.0-100.0)): 29.0 (0.0-100.0)
- Complete response, number of patients ([3]; oral, N = 21, beard): 0
- No response, number of patients ([3]; oral, N = 21, beard): 9
- Partial response, number of patients ([3]; oral, N = 21, beard): 12
- Complete response, number of patients ([3]; sublingual, n = 24, beard): 10
- No response, number of patients ([3]; sublingual, n = 24, beard): 7
- Partial response, number of patients ([3]; sublingual, n = 24, beard): 7
- Patients achieving a 50% or greater reduction in SALT score [4]: 32%
- Side effects ([5]; Patient 1): No side effects
- Activity of lichen planopilaris ([5]; Patient 1, sublingual 5-10 mg daily, July 2019 to February 2020, with concurrent medications): controlled
- Side effects ([5]; Patient 2): No side effects
- Symptoms of lichen planopilaris ([5]; Patient 2, up to 5 mg in the morning and 2.5 mg at night, with concurrent medications): symptom-free
- Patient-reported response ([5]; Patient 3, lichen planopilaris, 2 mg twice daily increased to 7.5 mg): not happy with the response
- Patient-reported response ([5]; Patient 4, lichen planopilaris/frontal fibrosing alopecia, 2.5 mg twice daily for 12 months): not happy with the response
- Effect on symptoms of lichen planopilaris and frontal fibrosing alopecia ([5]; series of case studies, sublingual): demonstrated activity at reducing the symptoms
- Number of patients who achieved tmax at 0.5 hour ([6]; Week 28, last dose, 15 patients): One
- Trace plasma levels prior to the last dose (range) ([6]; Week 28, pre-dose, 10 patient samples): 0.5 to 10.0 ng/mL
- half-life ([6]; human, plasma, 5 mg, sublingual, Week 28 (FIG. 5b), read-out: Estimated elimination half-life (plasma concentration halving from 29.14 ng/ml to 14.6 ng/ml) (converted)): ~11 h
- concentration at 24 h ([6]; human, plasma, 5 mg, Week 16, likely spuriously elevated by the nocte dose): 7.39 ng/mL
- concentration at 24 h ([6]; human, plasma, 5 mg, Week 28, no nocte dose): 0.28 ng/mL
- Tmax ([6]; human, plasma, sublingual, 5 mg tablet, read-out: Average time (tmax) to maximum plasma concentration): 1 h
- Cmax ([6]; human, plasma, sublingual, 5 mg tablet, read-out: Maximum plasma concentration (Cmax), average): 43.2 ng/mL
- Changes in blood biochemistry ([7]; human, in vivo): no clinically significant changes
- Serious adverse events ([7]; human, in vivo): no serious adverse events
- Withdrawals secondary to adverse events ([7]; human, in vivo): no withdrawals secondary to adverse events
- Good grade respondents (50-75%), proportion [7, 18]: 1/16
- High grade respondents (75-100%), proportion [7, 18]: 1/16
- Low grade respondents (15-29% reduction in SALT score at Week 28), proportion [7, 18]: 3/16
- Mean reduction in SALT score of the two patients who achieved >50% reduction [7, 18]: 60.3%
- Medium grade respondents (30-49%), proportion [7, 18]: 1/16
- Participants achieving at least 1 grade improvement in eyebrow assessment scale at Week 28, proportion [7, 18]: 8/16
- Participants achieving at least 1 grade improvement in eyelash assessment scale at Week 28, proportion [7, 18]: 6/16
- Participants who achieved a 100% reduction in SALT score at Week 28 [7, 18]: No participants
- Patients who achieved a >50% reduction in SALT score [7, 18]: 12.5%
- Mean reduction from baseline (Week 16) of SALT score at Week 28 [7, 19]: 15.57%
- Participants achieving at least 1 grade improvement in eyebrow assessment scale at Week 28, percentage [7, 19]: 50%
- Participants achieving at least 1 grade improvement in eyelash assessment scale at Week 28, percentage [7, 19]: 37.5%
- Participants achieving at least 1 grade improvement in eyebrow assessment scale at Week 28, percentage ([7]; sublingual, 5 mg tablets, 3 months, n = 16, listed as sublingual tofacitinib): (50%)
- Total Treatment Response, proportion ([7]; sublingual, 5 mg tablets, Week 28 vs Week 16): 6/16
- Total Treatment Response, percentage ([7]; sublingual, 5 mg tablets, Week 28 vs Week 16, n = 16, listed as Sublingual tofacitinib): 37.5%
- Mean change from baseline in Assessment of Quality of Life-8D (AQoL-8D) score at Week 28 ([7]; sublingual): 0.0148
- Mean change from baseline in Assessment of Quality of Life-8D (AQoL-8D) score at Week 28 [7, 20]: −0.0148
- Mean change from baseline in Alopecia Areata Symptom Impact Scale (AASIS) score at Week 28 - Global Symptom Impact Score ([7]; sublingual): 0.1306
- Mean change from baseline in Alopecia Areata Symptom Impact Scale (AASIS) score at Week 28 - Scalp Hair Loss Score ([7]; sublingual): 2.2142
- Mean change from baseline in Alopecia Areata Symptom Impact Scale (AASIS) score at Week 28 - Global Symptom Impact Score [7, 20]: −0.1306
- Mean change from baseline in Alopecia Areata Symptom Impact Scale (AASIS) score at Week 28 - Scalp Hair Loss Score [7, 20]: −2.2142
